From US20130317027A1, “COMPOUNDS AND THERAPEUTIC USES THEREOF” (Myrexis, Inc, priority 2010, published 2013)

Key:
[1] = Cytotoxicity Assay (CellTiter-Glo, 72 hour drug incubation); details: human, HCT116 cells
Procedure: (§1) HCT116 cells were seeded in 96 well plates (Greiner Bio-One, Monroe, N.C.) and allowed to settle overnight. Test compound dissolved in dimethyl sulfoxide (DMSO) was added and drug incubation proceeded for 72 hours. […] After 72 hour, 50 L of CellTiter-Glo Luminescent Cell Viability Assay reagent (Promega Corporation, Madison, Wis.) was added to cells in 200 L of cellular media. After a proscribed incubation period, luminescence was measured using a TopCount NXT plate reader (PerkinElmer, Waltham, Mass.).

Human NAMPT = target: T1, Human NAMPT (Homo sapiens, UniProt P43490); experiment: Nampt Activity Assay (coupled enzyme, resazurin/diaphorase fluorometric detection of NADH); assay type: biochemical; details: read-out: vitro IC50 (Nampt activity assay)
T1 construct: 6xHis (N); made in house; host or cells: E. coli BL21-AI
From the text: 5-phosphoribosyl-1-pyrophosphate (PRPP), ATP, NaM, NaMN, Triton X-100, UDP-glucose and diaphorase were purchased from Sigma-Aldrich, St. Louis, Mo. Human NAMPT, NMN adenylyltransferase (NMNAT1) and UDP-glucose dehydrogenase (UGDH) encoding DNAs were each inserted into a house-modified E. Coli expression vector such that the expressed proteins carried an N-terminal 6×His tag. The His-tagged proteins were expressed in the BL21-AI E. Coli expression strain (Invitrogen Corporation, Carlsbad, Calif.) following induction by 0.2% L-arabinose and 0.5 mM IPTG at 30° C. Proteins were purified on Ni-NTA resin (Qiagen, Germantown, Md.).
The assay for Nampt catalytic activity was constructed based on a previously published coupled enzyme fluorometric technique, which employs NADH as ultimate analyte (Revollo, J. R. et al. Biol. Chem. 279, 50754-50763 (2004)). A substantial improvement in assay sensitivity was achieved by switching from direct detection to a resazurin/diaphorase-based fluorometric detection system for NADH (Guilbault, G. G., and Kramer, D. N. Anal. Chem. 37, 1219-1221 (1965)). The standard inhibition analyses were performed in a real-time mode in 96-well microtiter plates using 50 mM Tris-HCl, pH 7.5, 1% DMSO (v/v), 0.01% Triton X-100 (v/v), 10 mM MgCl2, 2 mM ATP, […], […], […], as well as the following detection reagents: 5 nM Nmnat, 200 nM Ugdh, 200 µM UDP-glucose, 0.02 U/mL diaphorase and […]. Incubation of samples at room temperature for up to 3 hours was followed by quantification of fluorescence intensities at excitation and emission wavelengths of 510 nm and 590 nm, respectively, using Gemini XS plate reader (Molecular Devices, Sunnyvale, Calif.). The counter-assay intended to disqualify false positives, such as inhibitors of detection enzymes or fluorescence quenchers, was carried out essentially as described above with an exception that 1 μM NaMN was substituted for Nampt.

HCT116 cells [2] = experiment: Synergy between Nampt inhibitor and chemotherapeutic compounds (MacSynergy II, CellTiter-Glo); assay type: cell-based; details: combined with a known Nampt inhibitor
Procedure: Experiments were conducted in HCT116 cells. […] Prior to combinations of compounds, dose curves of cells treated with a single compound were generated to define relevant compound doses to use in the combination analysis. Typically, relevant doses were those found in the inflection portion of a sigmoidal dose-response curve. Utilizing these optimized conditions, cells were dosed with Nampt inhibitor plus the test compound at a variety of concentrations of each, and viability was assessed using CellTiter-Glo. Data was processed using the MacSynergy™ II algorithm, which subtracted from actual data a prediction of compound additivity.

HCT116 cells [3] = test system: HCT116 cells
Procedure: as §1

PARP in HCT116 cells = experiment: PARP activation by 5-FU; assay type: cell-based
From the text: Kim, M. Y. et al. Genes & Development 19:1951-67 (2005)). […] TS inactivation is know to cause an imbalance in nucleotide pools that subsequently promotes aberrant uracil incorporation into DNA (Berger S. H. et al. Biochemical Pharmacology 76:697-706 (2008)).

PARP = details: in vitro and in vivo models of cerebral ischemia; cited from earlier work
[4] = test system: murine gastric and bladder tumors; details: immune-competent mice; cited from earlier work

T1 sequence (P43490 whole entry): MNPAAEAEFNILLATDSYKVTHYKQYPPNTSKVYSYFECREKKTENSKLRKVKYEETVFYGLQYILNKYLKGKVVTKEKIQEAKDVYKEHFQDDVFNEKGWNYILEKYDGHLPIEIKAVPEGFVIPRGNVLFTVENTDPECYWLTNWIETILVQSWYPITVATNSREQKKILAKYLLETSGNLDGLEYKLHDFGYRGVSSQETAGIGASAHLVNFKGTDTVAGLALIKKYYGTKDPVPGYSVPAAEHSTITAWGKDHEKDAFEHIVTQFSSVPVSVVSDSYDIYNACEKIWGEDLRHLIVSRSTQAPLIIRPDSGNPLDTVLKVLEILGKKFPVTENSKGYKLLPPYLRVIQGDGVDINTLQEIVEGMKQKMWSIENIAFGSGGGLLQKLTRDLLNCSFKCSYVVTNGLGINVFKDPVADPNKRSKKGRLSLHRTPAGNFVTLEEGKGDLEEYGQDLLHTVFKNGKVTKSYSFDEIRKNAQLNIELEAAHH

IC50 (Human NAMPT) | Molecule | IC50 at 72 h [1] | also measured
~2.4 nM | N#C/N=C(/NCc1ccc(COc2ccccc2-c2ccccc2)cc1)Nc1ccncc1 [Example 605, 1-{4-[(Biphenyl-2-yloxy)methyl]benzyl}-2-cyano-3-pyridin-4-ylguanidine] | ~1.1 nM | 
 | Oc1cccc(-c2nc(N3CCOCC3)c3oc4ncccc4c3n2)c1 [PI-103] |  | drug interaction (synergy, additivity, or antagonism) with Nampt inhibitor (HCT116 cells [2]): synergized
~0.8 nM | N#Cc1ccc(S(=O)(=O)Nc2ccc(NC(=O)NCc3cccnc3)cc2)c(Cl)c1 [Example 580, 2-Chloro-4-cyano-N-(4-{[(pyridin-3-ylmethyl)carbamoyl]amino}phenyl) benzenesulfonamide] | ~100 nM | 
~10 nM | CN(C)CCOc1cccc(-c2ccccc2CCOc2ccc(NC(=O)NCc3cccnc3)cc2)c1 [Example 797, 1-[4-(2-{3′-[2-(Dimethylamino)ethoxy]biphenyl-2-yl}ethoxy)phenyl]-3-(pyridin-3-ylmethyl)urea] |  | 
~11 nM | COc1cc(N/C(=N/C#N)NCc2ccc(NS(=O)(=O)c3ccccc3-c3ccccc3)cc2)ccn1 [Example 613, N-{4-[({(Z)-(Cyanoamino)[(2-methoxypyridin-4-yl)amino]methylidene}amino)methyl]phenyl} biphenyl-2-sulfonamide] | ~2600 nM | 
~1.8 nM | O=C(NCc1cccnc1)Nc1ccc(COc2cc(C(F)(F)F)ccc2Cl)cc1 [Example 164, 1-(4-{[2-Chloro-5-(trifluoromethyl)phenoxy]methyl}phenyl)-3-(pyridin-3-ylmethyl)urea] | ~74 nM | 
~6.3 nM | O=C(NCc1cccnc1)Nc1ccc(C[S+]([O-])c2ccccc2-c2ccccc2)cc1 (centres unmarked) [Example 210, 1-{4-[(biphenyl-2-ylsulfinyl)methyl]phenyl}-3-(pyridin-3-ylmethyl)urea] | ~39 nM | 
 | 4-Fluoro-2-{2-[3- (morpholin-4- yl)azetidin-1- yl]pyridin-4-yl}- N-(4-{[(pyridin- 3-ylmethyl) carbamoyl] amino}phenyl) benzenesulfon- amide [Example 762] |  | IC50 (HCT116 cells [3]): ~2.2 nM
~2 nM | O=C(NCCCNS(=O)(=O)c1ccccc1-c1ccccc1)NCc1cccnc1 [Example 152, N-(3-{[(pyridin-3-ylmethyl)carbamoyl]amino}propyl)biphenyl-2-sulfonamide] | ~55 nM | 
 | O=C(NCc1cccnc1)Nc1ccc(OCCc2ccc(F)cc2-c2ccnc(N3CCNCC3)c2)cc1 [Example 759, 1-[4-(2-{4-Fluoro-2-[2-(piperazin-1-yl)pyridin-4-yl]phenyl}ethoxy)phenyl]-3-(pyridin-3-ylmethyl)urea] | ~1.9 nM | 
~10 nM | O=C(NCc1cccnc1)Nc1ccc(NS(=O)(=O)c2cc(C(=O)NCC3CCCN3)c(Cl)cc2F)cc1 (centres unmarked) [Example 831, 2-Chloro-4-fluoro-5-[(4-{[(pyridin-3-ylmethyl)carbamoyl]amino}phenyl)sulfamoyl]-N-(pyrrolidin-2-ylmethyl)benzamide] |  | 
 | O=c1[nH]cc(F)c(=O)[nH]1 [5-fluorouracil (5-FU), 5-fluorouracil] |  | PARP activation (PARP in HCT116 cells): PARP activator
 | O=c1[nH]c(CCCN2CC=C(c3ccccc3)CC2)nc2cccc(Cl)c12 [FR247304] |  | neuronal damage (PARP): attenuate neuronal damage
 | O=C(/C=C/c1cccnc1)NCCCCC1CCN(C(=O)c2ccccc2)CC1 [AP0866] |  | effect on tumor growth, co-administration with L-1MT [4]: additive inhibitory effect
 | COS(C)(=O)=O [methyl methanesulfonate (MMS), methyl methanesulfonate] |  | drug interaction (synergy, additivity, or antagonism) with Nampt inhibitor (HCT116 cells [2]): synergy
 | Cc1nc2ccc(CN(C)c3ccc(C(=O)N[C@@H](CCC(=O)O)C(=O)O)s3)cc2c(=O)[nH]1 [raltitrexed] |  | drug interaction (synergy, additivity, or antagonism) with Nampt inhibitor (HCT116 cells [2]): synergized
~1300 nM | N#C/N=C(\NCCOc1ccccc1-c1ccccc1)Nc1cccnc1 [Example 641, 1-[2-(Biphenyl-2-yloxy)ethyl]-2-cyano-3-pyridin-3-ylguanidine] | ~3200 nM | 
 | O=C(c1cc(Cc2n[nH]c(=O)c3ccccc23)ccc1F)N1CCN(C(=O)C2CC2)CC1 [olaparib] |  | drug interaction (synergy, additivity, or antagonism) with Nampt inhibitor (HCT116 cells [2]): antagonism
~520 nM | N#C/N=C(/NCC(=O)NCCOc1ccccc1-c1ccccc1)Nc1ccncc1 [Example 634, (Z)-N-[2-(Biphenyl-2-yloxy)ethyl]-N~2~- [(cyanoamino)(pyridin-4-ylamino)methylidene] glycinamide] | ~5000 nM | 
~3.4 nM | C[C@H](Oc1ccccc1-c1ccccc1)c1nc(CNC(=O)NCc2cccnc2)cs1 [Example 363, 1-({2-[(1S)-1-(Biphenyl-2-yloxy)ethyl]-1,3-thiazol-4-yl}methyl)-3-(pyridin-3-ylmethyl)urea] | ~290 nM | 
